The target in one experiment is T1, delta opioid receptor (Rattus norvegicus, UniProt P33533).
T1 construct: from tissue; host or cells: rat forebrain membrane (particulate) preparation
As to the kind of experiment: Rat brain delta opioid receptor binding assay ([3H]DPDPE). Conditions: rat forebrain membranes, 25° C. The protocol: (§1) Rat Brain Mu and Delta Opioid Receptor Binding Assay
Male, Wistar rats (150-250 g, VAF, Charles River, Kingston, N.Y.) were killed by cervical dislocation and their brains removed and placed immediately in ice cold Tris HCl buffer (50 mM, pH 7.4). The forebrains were separated from the remainder of the brain by a coronal transection, beginning dorsally at the colliculi and passing ventrally through the midbrain-pontine junction. After dissection, the forebrains were homogenized in Tris buffer in a Teflon®-glass homogenizer. The homogenate was diluted to a concentration of 1 g of forebrain tissue per 100 mL Tris buffer and centrifuged at 39,000×G for 10 min. The pellet was resuspended in the same volume of Tris buffer with several brief pulses from a Polytron homogenizer. This particulate preparation was used for the opioid receptor binding assays. […] The tubes and filters were rinsed three times with 4 mL of 10 mM HEPES (pH 7.4) and the radioactivity associated with the filter circles determined using Formula 989 scintillation fluid (New England Nuclear, Boston, Mass.) in a scintillation counter.
(§2) The data were used to calculate a Ki value, using GraphPad Prism.

Another experiment deals with T2, mu opioid receptor (Rattus norvegicus, UniProt P33535).
T2 construct: from tissue; host or cells: rat forebrain membrane (particulate) preparation
Briefly: Rat brain mu opioid receptor binding assay ([3H]DAMGO). Conditions: rat forebrain membranes, 25° C. The protocol:
as §1
Male, Wistar rats (150-250 g, VAF, Charles River, Kingston, N.Y.) were killed by cervical dislocation and their brains removed and placed immediately in ice cold Tris HCl buffer (50 mM, pH 7.4). The forebrains were separated from the remainder of the brain by a coronal transection, beginning dorsally at the colliculi and passing ventrally through the midbrain-pontine junction. After dissection, the forebrains were homogenized in Tris buffer in a Teflon®-glass homogenizer. The homogenate was diluted to a concentration of 1 g of forebrain tissue per 100 mL Tris buffer and centrifuged at 39,000×G for 10 min. The pellet was resuspended in the same volume of Tris buffer with several brief pulses from a Polytron homogenizer. This particulate preparation was used for the opioid receptor binding assays. Following incubation with the mu opioid selective peptide ligand [^3H]DAMGO or the delta opioid selective ligand [^3H]DPDPE at 25° C., the tube contents were filtered through Whatman GF/B filter sheets on a Brandel cell harvester. The tubes and filters were rinsed three times with 4 mL of 10 mM HEPES (pH 7.4) and the radioactivity associated with the filter circles determined using Formula 989 scintillation fluid (New England Nuclear, Boston, Mass.) in a scintillation counter.
as §2

In another experiment the test system is Male Sprague Dawley rats. Briefly: Spinal nerve ligation (SNL) model of neuropathic pain, mechanical allodynia (Von Frey). Conditions: rat. Type of experiment: in vivo. The method, then: Spinal Nerve Ligation (SNL) Model of Neuropathic Pain
Male Sprague Dawley rats weighing 145 to 165 g (approximately 6 weeks of age) were obtained from Harlan (Indianapolis, Ind.). Food and water were provided ad lib and a 12 h light and 12 h dark cycle were maintained. Animals were group housed under specific pathogen-free, barrier maintained environment and were allowed to acclimate for no less than 1 week. Following surgery, animals were housed individually in solid bottom polycarbonate cages with automatic watering devices at 22° C. and a relative humidity of 60%. All animals received Harland Tekland Diet # 8604.
Anesthesia was induced using isoflurane (IsoVet™) inhalant in an induction chamber (3-5% in 2 L/min of O2). Once recumbent, the animal was removed and placed into a nose cone which delivered inhalant isoflurane (0.5-2.5% at 2 L/min Of O2). The dorsal pelvic area was shaved and scrubbed aseptically with chlorhexidine scrub, 70% alcohol, and a 5% chlorhexidine solution. The animal was held in ventral recumbency on a heating pad, and the surgical procedure described by Kim and Chung (1992) was performed. The left paraspinal muscles were separated from the spinous processes at the level of Lumbar 4 to Sacral 2 (L4-S2). Once the musculature was retracted, the L6 transverse process was removed using a small rongeur. L4 and L5 spinal nerves could then be visualized. L5 was then isolated and ligated using 6-0 silk suture material. Warm saline and a dose of long-acting antibiotic was administered immediately post-op before recovery form anesthesia.
At least one week following surgery, animals were individually placed in a Lucite testing chamber with a wire mesh bottom. Mechanical (tactile) allodynia was measured by recording the pressure at which the affected paw was withdrawn from graded stimuli (Von Frey hairs ranging from 4.0 to 148.1 mN equivalent to 0.25 to 15 g of pressure) applied to the plantar surface of the paw (between the footpads) according to the procedure of Chaplan et. al (1994) in order to calculate paw withdrawal threshold (PWT). Normal rats can withstand at least 15 g of pressure without responding. SNL rats can respond to as little as 0.25 g of pressure. Rats were included in this study only if their PWT was below 4.0 g.
Animals were used for compound testing between 2 weeks and 8 weeks post-operatively. Animals were always pre-tested for baseline withdrawal threshold on the day of testing. Following a 16 h fast, PWT was evaluated at 30 min, 1 h, 2 h, and 4 h post-dosing. Dose-response studies were conducted at the time of peak effect. Studies were conducted in a blinded manner.
Data were normalized and results were presented as % MPE (maximum possible effect) of the drug.

For another experiment, the system named is male Sprague-Dawley rats. Briefly: Rat CFA radiant heat model of inflammatory pain. The class given is in vivo. Particulars: dosed orally 24 h after intraplantar CFA. The method, then: Rat CFA Radiant Heat Model of Inflammatory Pain
Intraplantar injection of Complete Freund's Adjuvant (CFA) in rodents results in a strong, long-lasting inflammatory reaction, characterized by a chronic and pronounced hyperalgesia to both thermal and mechanical stimuli. These effects peak between 24-72 h following injection, and can last for several days to a few weeks. To assess the ability of compounds to reverse thermal hyperalgesia, male Sprague-Dawley rats (200-350 g) were given an intraplantar injection of CFA (1:1 CFA:saline, 100 μL) into their left hindpaw. Following a 24-h incubation period, response latencies on the Radiant Heat Paw Stimulator (RH) were obtained and compared to baseline (pre-CFA) latencies. The RH device automatically registered lifting of the paw from the surface of the glass. […] Following the post CFA latency assessment, rats were dosed orally (2.5 mL/kg) with test compound or vehicle (hydroxypropylmethylcellulose, HPMC). Percent reversal of hyperalgesia was calculated for each animal as (Treatment Response−postCFA Response)/(preCFA Response−postCFA Response)×100. Therefore, a return to normal pre-CFA thresholds was defined as 100% efficacy, whereas no change from post-CFA thresholds was 0% efficacy. Average % reversal of hyperalgesia was then calculated for each treatment group (n=6-8 rats/group). […]

The target of another experiment is T3, Human mu opioid (Homo sapiens, UniProt P35372).
T3 construct: host or cells: CHO cell membranes
As to the kind of experiment: [35S]GTPγS binding assay in human mu opioid-CHO cell membranes. The class given is biochemical. The protocol: [^35S]GTPγS Binding Assay in Human mu opioid-CHO Cell Membranes
Human mu-CHO cell membranes were purchased from Receptor Biology, Inc. (Baltimore, Md.). About 10 mg/ml of membrane protein was suspended in 10 mM TRIS-HCl, pH 7.2, 2 mM EDTA, 10% sucrose.
Membranes were maintained at 4-8° C. 1 ml of membranes was added into 15 ml cold assay buffer, containing 50 mM HEPES, pH 7.6, 5 mM MgCl2, 100 mM NaCl, 1 mM DTT and 1 mM EDTA. The membrane suspension was homogenized with a Polytron 2 times and centrifuged at 3000 rpm for 10 min. The supernatant was then centrifuged at 18,000 rpm for 20 min. The pellet was resuspended in 10 ml assay buffer with a Polytron.
The pellet membranes (20 μg/ml) were preincubated with Scintillation Proximity Assay beads (SPA, 10 mg/ml) at 25° C. for 45 min in the assay buffer. The SPA beads (5 mg/ml) coupled with membranes (10 μg/ml) were then incubated with 0.5 nM [^35S]GTPγS in the same HEPES buffer containing 50 μM GDP in total volume of 200 μl. A range of concentrations of receptor agonists were used to stimulate [^35S]GTPγS binding. The basal binding was tested in the absence of agonist and non-specific binding was tested in the presence of 10 μM unlabeled GTPγS. Radioactivity was quantified on a Packard TopCount.
Data were Calculated as Follows: % of basal=(stimulated−non-specific)*100/(basal−non specific) % Inhibition=(% Basal of 1 μM DAMGO−% Basal of compound)*100/(% Basal of 1 μM DAMGO−100)
(§3) EC50 values were calculated using the Prism program.
(In general: Binding of GTPγS marks nucleotide exchange on a G protein.)

For experiment [1], the system named is spinal nerve ligated rats. As to the kind of experiment: Investigation of tolerance development to antiallodynic effect. Conditions: dosing for five days, evaluated days one and five. The class given is in vivo, rat. The method, then:
Investigation of Tolerance Development
The development of tolerance to the analgesic effect of mu opioid compounds is well known. The development of tolerance to the antiallodynic effect of the Compound 3 was investigated by administering the compound to spinal nerve ligated rats for five days. The antiallodynic effect of the compound was evaluated on days one and five.

For another experiment, the target named is T4, Delta opioid (Mus musculus, UniProt P32300).
T4 construct: NG108-15 cell membranes were purchased from Applied Cell Sciences (Rockville, Md.); host or cells: NG108-15 cell membranes
Briefly: [35S]GTPγS binding assay in NG108-15 cell membrane. The class given is biochemical. Particulars: NG108-15 cell membranes. The method, then:
[^35S]GTPγS Binding Assay in NG108-15 Cell Membrane
NG108-15 cell membranes were purchased from Applied Cell Sciences (Rockville, Md.). An 8 mg/mL portion of membrane protein was suspended in 10 mM TRIS-HCl, pH 7.2, 2 mM EDTA, 10% sucrose.
Membranes were maintained at 4-8° C. A 1 mL portion of membranes was added into 10 mL cold assay buffer, containing 50 mM Tris, pH 7.6, 5 mM MgCl2, 100 mM NaCl, 1 mM DTT and 1 mM EGTA. The membrane suspension was homogenized with a Polytron 2 times and centrifuged at 3000 rpm for 10 min. The supernatant was then centrifuged at 18,000 rpm for 20 min. The pellet was resuspended in 10 ml assay buffer using a Polytron.
The pellet membranes (75 μg/ml) were preincubated with SPA beads (10 mg/ml) at 25° C. for 45 min in the assay buffer. The SPA beads (5 mg/ml) coupled with membranes (37.5 μg/ml) were then incubated with 0.1 nM [^35S] GTPγS in the same Tris buffer containing 100 μM GDP in total volume of 200 μl. A range of concentrations of receptor agonists was used to stimulate [^35S] GTPγS binding. The basal binding was tested in the absence of agonist and non-specific binding was tested in the presence of 10 μM unlabeled GTPγS. The radioactivity was quantified on a Packard TopCount.
Calculations were performed as follows: % of Basal=(stimulated−non specific)*100/(basal−non specific).
as §3

The structures appear in SMILES notation. pEC50, pKi: −log10 of the molar value.

T1 sequence (P33533 whole entry): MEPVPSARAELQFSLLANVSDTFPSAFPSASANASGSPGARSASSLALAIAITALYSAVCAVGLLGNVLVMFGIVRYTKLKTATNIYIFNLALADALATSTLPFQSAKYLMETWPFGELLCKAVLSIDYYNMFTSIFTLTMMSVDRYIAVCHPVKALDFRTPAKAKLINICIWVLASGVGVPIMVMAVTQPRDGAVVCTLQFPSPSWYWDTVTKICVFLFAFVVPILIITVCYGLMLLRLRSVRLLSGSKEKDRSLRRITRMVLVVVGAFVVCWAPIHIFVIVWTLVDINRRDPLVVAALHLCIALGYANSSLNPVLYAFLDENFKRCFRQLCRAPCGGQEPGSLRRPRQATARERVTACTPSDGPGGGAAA
T2 sequence (P33535 whole entry): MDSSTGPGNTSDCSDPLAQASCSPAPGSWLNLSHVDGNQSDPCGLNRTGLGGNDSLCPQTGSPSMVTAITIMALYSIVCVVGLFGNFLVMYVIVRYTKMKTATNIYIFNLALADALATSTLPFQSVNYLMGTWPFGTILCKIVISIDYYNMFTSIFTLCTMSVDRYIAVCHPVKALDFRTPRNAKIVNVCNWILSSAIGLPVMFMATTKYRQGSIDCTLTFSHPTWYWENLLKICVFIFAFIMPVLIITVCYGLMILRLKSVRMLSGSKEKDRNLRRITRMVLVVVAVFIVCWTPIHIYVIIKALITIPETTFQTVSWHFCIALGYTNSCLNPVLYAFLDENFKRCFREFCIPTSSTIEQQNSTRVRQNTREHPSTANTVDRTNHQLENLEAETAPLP
T3 sequence (P35372 whole entry): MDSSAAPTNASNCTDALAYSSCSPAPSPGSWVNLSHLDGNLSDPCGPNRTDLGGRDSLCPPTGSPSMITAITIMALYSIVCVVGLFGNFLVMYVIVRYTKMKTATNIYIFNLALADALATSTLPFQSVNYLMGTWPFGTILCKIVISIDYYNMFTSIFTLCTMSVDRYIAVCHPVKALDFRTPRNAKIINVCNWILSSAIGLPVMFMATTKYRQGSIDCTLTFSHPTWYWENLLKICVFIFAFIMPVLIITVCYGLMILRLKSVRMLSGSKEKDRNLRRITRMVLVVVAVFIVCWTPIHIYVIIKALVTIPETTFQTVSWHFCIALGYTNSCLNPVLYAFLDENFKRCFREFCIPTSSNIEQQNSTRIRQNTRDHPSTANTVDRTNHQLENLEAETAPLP
T4 sequence (P32300 whole entry): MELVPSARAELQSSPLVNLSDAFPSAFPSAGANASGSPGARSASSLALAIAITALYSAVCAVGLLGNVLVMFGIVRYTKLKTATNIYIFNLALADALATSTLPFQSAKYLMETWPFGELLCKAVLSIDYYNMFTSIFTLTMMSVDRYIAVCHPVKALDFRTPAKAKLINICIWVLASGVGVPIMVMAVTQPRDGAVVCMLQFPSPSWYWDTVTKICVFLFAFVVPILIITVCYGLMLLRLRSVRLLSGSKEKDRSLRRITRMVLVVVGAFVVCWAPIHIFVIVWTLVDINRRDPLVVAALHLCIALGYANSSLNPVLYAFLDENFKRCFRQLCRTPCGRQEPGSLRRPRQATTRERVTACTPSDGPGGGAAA

In general, pKi refers to the Ki on a negative log10 scale, so that one unit is a factor of ten. As to `CCN(CC)C(=O)c1cccc([C@@]2(O)CCCC[C@@H]2CN(C)C)c1` (racemic) [Cpd 5, 3-[(1-RS, 2-RS)-2-[(dimethylamino)methyl]-1-hydroxycyclohexyl]-N,N-diethyl-benzamide], the pKi on delta opioid receptor and on mu opioid receptor was less than 5.00 in each case.

As usually defined, the pEC50 is −log10 of the EC50, conventionally taken in molar units. A low value points to a large EC50. With `CN(C)C[C@@H]1CCCC[C@@]1(O)c1cccc(C(N)=O)c1` (single isomer, unassigned) [Cpd 4], the “MPE in spinal nerve ligation model” value in the experiment with Male Sprague Dawley rats (30 mg/kg, p.o.) was found to be 39%; with Male Sprague Dawley rats (100 mg/kg, p.o.), 95%. The “Antihyperalgesic effect (reversal of thermal hyperalgesia)” value with male Sprague-Dawley rats is listed as “antihyperalgesic”. Besides, the pEC50 on Human mu opioid is 5.32. On Human mu opioid, the “Mu opioid GTPγS relative efficacy” value is reported as 41%. In addition, the pKi is less than 5.00 on delta opioid receptor and 6.08 on mu opioid receptor.

For `CNC(=O)c1cccc([C@@]2(O)CCCC[C@@H]2CN(C)C)c1` (racemic) [Cpd 7, 3-[(1-RS, 2-RS)-2-[(Dimethylamino)methyl]-1-hydroxycyclohexyl]-N-methylbenzamide], the figures for the pKi at delta opioid receptor and on mu opioid receptor were less than 5.00 and 5.67, respectively.

With `CN1CC[C@]23c4c5ccc(O)c4O[C@H]2[C@@H](O)C=C[C@H]3[C@H]1C5` [morphine, reference compound], the “Development of tolerance to the antiallodynic effect” value in experiment [1] is reported as “little or no antiallodynic effect remaining after five days of dosing”.

As to `CN(C)C[C@H]1CCCC[C@]1(O)c1cccc(C(=O)NC2CC2)c1` (racemic) [Cpd 6, N-Cyclopropyl-3-[(1-RS, 2-RS)-2-[(dimethylamino)methyl]-1-hydroxycyclohexyl]-benzamide], the pKi was less than 5.00 on delta opioid receptor and 5.28 at mu opioid receptor.

As to `CN(C)C[C@@H]1CCCC[C@]1(O)c1cccc(C(N)=O)c1` (racemic) [Cpd 1, 3-[(1-RS, 2-SR)-2-[(Dimethylamino)methyl]-1-hydroxycyclohexyl]-benzamide], the pKi on delta opioid receptor was 5.01; on mu opioid receptor, 5.86.

In turn, `CN(C)C[C@H]1CCCC[C@]1(O)c1cccc(C(N)=O)c1` (racemic) [Cpd 2, 3-[(1-RS, 2-RS)-[(2-Dimethylamino)methyl]-1-hydroxycyclohexyl]-benzamide] had a negative-log EC50 (pEC50) at Delta opioid of 5.25. Also, the “MPE in spinal nerve ligation model” value in the experiment on Male Sprague Dawley rats (3 mg/kg, i.v.) was 87%; with Male Sprague Dawley rats (30 mg/kg, p.o.), 88%. The “Mu opioid GTPγS (result in words)” value at Human mu opioid is “Agonist”. For the same compound, the figures for the pKi on delta opioid receptor and on mu opioid receptor were 5.61 and 7.53, respectively.

These data come from patent publication US7745492B2, “Carboxamido opioid compounds” (Janssen Pharmaceutical, priority 2004, dated 2010).
